From ChEMBL document CHEMBL1146245, “Antitumor agents. 258. Syntheses and evaluation of dietary antioxidant--taxoid conjugates as novel cytotoxic agents” (2007)
In brackets after ≈: the same amount, converted by molar mass. Activity calls are given as the source filed them. No cut-off for these calls is given here.

How the values were obtained:
Format in all cases: functional
KB = test: Cytotoxicity against human KB cells by sulforhodamine B assay; conditions: for EC50: read-out: ED50 (the source's name)
1A9 = test: Cytotoxicity against human 1A9 cells by sulforhodamine B assay; conditions: for EC50: read-out: ED50 (the source's name)
A-431 = test: Cytotoxicity against human A431 cells; conditions: read-out: ED50 (the source's name)
[1] = Cytotoxicity against MDR human KB-VIN cells expressing P-glycoprotein
HCT-8 = test: Cytotoxicity against human HCT8 cells
A549 = test: Cytotoxicity against human A549 cells

Row | SMILES | EC50 (KB) | EC50 (1A9) | also measured
1 | COc1cc(/C=C/C(C)=O)ccc1OC(=O)CCC(=O)O[C@@H](C(=O)O[C@H]1C[C@@]2(O)[C@@H](OCc3ccccc3)[C@@H]3[C@]4(OC(C)=O)CO[C@@H]4C[C@H](OC(=O)CN(C)C)[C@@]3(C)C(=O)[C@H](OC(C)=O)C(=C1C)C2(C)C)[C@@H](NCc1ccccc1)c1ccccc1 | 0.7 µg/mL (≈ 0.591 µM) | 0.63 µg/mL (≈ 0.531 µM) | 
2 | CC(=O)O[C@H]1C(=O)[C@]2(C)[C@@H](OC(=O)CCC(=O)O)C[C@H]3OC[C@@]3(OC(C)=O)[C@H]2[C@H](OCc2ccccc2)[C@]2(O)C[C@H](OC(=O)[C@H](OC(=O)CCC(=O)Oc3c(C)c(C)c4c(c3C)OC(C)(CCC[C@@H](C)CCC[C@@H](C)CCCC(C)C)CC4)[C@@H](NCc3ccccc3)c3ccccc3)C(C)=C1C2(C)C (some centres not stated) [listing 1 of 2 here] |  |  | EC50 (A-431): 0.1 µg/mL (≈ 0.0695 µM)
3 | CC(=O)O[C@H]1C(=O)[C@]2(C)[C@@H](OC(=O)CN(C)C)C[C@H]3OC[C@@]3(OC(C)=O)[C@H]2[C@H](OCc2ccccc2)[C@]2(O)C[C@H](OC(=O)[C@H](OC(=O)CCC(=O)Oc3c(C)c(C)c4c(c3C)OC(C)(C)CC4)[C@@H](NCc3ccccc3)c3ccccc3)C(C)=C1C2(C)C | 9.79 µg/mL (≈ 8.07 µM) | 1.01 µg/mL (≈ 0.832 µM) | 
4 | COc1cc(/C=C/C(=O)CC(=O)/C=C/c2ccc(OC(=O)CCC(=O)O[C@@H](C(=O)O[C@H]3C[C@@]4(O)[C@@H](OCc5ccccc5)[C@@H]5[C@]6(OC(C)=O)CO[C@@H]6C[C@H](O)[C@@]5(C)C(=O)[C@H](OC(C)=O)C(=C3C)C4(C)C)[C@@H](NCc3ccccc3)c3ccccc3)c(OC)c2)ccc1O | 0.01 µg/mL (≈ 0.00783 µM) | 0.03 µg/mL (≈ 0.0235 µM) | EC50 ([1]; KBVIN, read-out: ED50 (the source's name)): 0.2 µg/mL (≈ 0.157 µM); EC50 (A-431): 0.03 µg/mL (≈ 0.0235 µM); Activity (HCT-8): inactive; EC50 (A549; read-out: ED50 (the source's name)): 0.03 µg/mL (≈ 0.0235 µM)
5 | CC(=O)O[C@H]1C(=O)[C@@]2(C)[C@H]([C@H](OCc3ccccc3)[C@]3(O)C[C@H](OC(=O)[C@H](OC(=O)CCC(=O)Oc4ccc5c(C)cc(=O)oc5c4)[C@@H](NCc4ccccc4)c4ccccc4)C(C)=C1C3(C)C)[C@]1(OC(C)=O)CO[C@@H]1C[C@@H]2O | 0.14 µg/mL (≈ 0.129 µM) | 0.005 µg/mL (≈ 0.00461 µM) | 
6 | CC(=O)O[C@H]1C(=O)[C@]2(C)[C@@H](OC(=O)CCC(=O)O)C[C@H]3OC[C@@]3(OC(C)=O)[C@H]2[C@H](OCc2ccccc2)[C@]2(O)C[C@H](OC(=O)[C@H](OC(=O)CCC(=O)Oc3c(C)c(C)c4c(c3C)OC(C)(CCC[C@@H](C)CCC[C@@H](C)CCCC(C)C)CC4)[C@@H](NCc3ccccc3)c3ccccc3)C(C)=C1C2(C)C (some centres not stated) [listing 2 of 2 here] |  |  | Activity [1]: inactive; Activity (KB): inactive; Activity (1A9): inactive; Activity (HCT-8): inactive; Activity (A549): inactive
7 | CC(=O)O[C@H]1C(=O)[C@]2(C)[C@@H](OC(=O)CN(C)C)C[C@H]3OC[C@@]3(OC(C)=O)[C@H]2[C@H](OCc2ccccc2)[C@]2(O)C[C@H](OC(=O)[C@H](OC(=O)CCC(=O)Oc3c(C)c(C)c4c(c3C)OC(C)(CCC[C@@H](C)CCC[C@@H](C)CCCC(C)C)CC4)[C@@H](NCc3ccccc3)c3ccccc3)C(C)=C1C2(C)C (some centres not stated) [listing 1 of 2 here] |  |  | Activity [1]: inactive; Activity (KB): inactive; Activity (1A9): inactive; Activity (HCT-8): inactive; Activity (A549): inactive
8 | COc1cccc(/C=C\C(C)=O)c1OC(=O)CCC(=O)O[C@@H](C(=O)O[C@H]1C[C@@]2(O)[C@@H](OCc3ccccc3)[C@@H]3[C@]4(OC(C)=O)CO[C@@H]4C[C@H](OC(=O)CN(C)C)[C@@]3(C)C(=O)[C@H](OC(C)=O)C(=C1C)C2(C)C)[C@@H](NCc1ccccc1)c1ccccc1 | 0.34 µg/mL (≈ 0.287 µM) | 0.19 µg/mL (≈ 0.16 µM) | 
9 | CC(=O)O[C@H]1C(=O)[C@]2(C)[C@@H](OC(=O)CCC(=O)O)C[C@H]3OC[C@@]3(OC(C)=O)[C@H]2[C@H](OCc2ccccc2)[C@]2(O)C[C@H](OC(=O)[C@H](OC(=O)CCC(=O)Oc3c(C)c(C)c4c(c3C)OC(C)(CCC[C@@H](C)CCC[C@@H](C)CCCC(C)C)CC4)[C@@H](NCc3ccccc3)c3ccccc3)C(C)=C1C2(C)C.CCN(CC)CC (some centres not stated) |  |  | EC50 (A-431): 0.2 µg/mL
10 | CC(=O)O[C@H]1C(=O)[C@]2(C)[C@@H](OC(=O)CN(C)C)C[C@H]3OC[C@@]3(OC(C)=O)[C@H]2[C@H](OCc2ccccc2)[C@]2(O)C[C@H](OC(=O)[C@H](OC(=O)CCC(=O)Oc3c(C)c(C)c4c(c3C)OC(C)(CCC[C@@H](C)CCC[C@@H](C)CCCC(C)C)CC4)[C@@H](NCc3ccccc3)c3ccccc3)C(C)=C1C2(C)C.CS(=O)(=O)O (some centres not stated) |  |  | EC50 (A-431): 0.1 µg/mL
11 | CC(=O)O[C@H]1C(=O)[C@@]2(C)[C@H]([C@H](OCc3ccccc3)[C@]3(O)C[C@H](OC(=O)[C@H](OC(=O)CCC(=O)Oc4ccc5c(=O)c(O)c(-c6ccccc6)oc5c4)[C@@H](NCc4ccccc4)c4ccccc4)C(C)=C1C3(C)C)[C@]1(OC(C)=O)CO[C@@H]1C[C@@H]2O | 0.26 µg/mL (≈ 0.224 µM) | 0.13 µg/mL (≈ 0.112 µM) | 
12 | COc1cc(/C=C/C(C)=O)ccc1OC(=O)CCC(=O)O[C@@H](C(=O)O[C@H]1C[C@@]2(O)[C@@H](OCc3ccccc3)[C@@H]3[C@]4(OC(C)=O)CO[C@@H]4C[C@H](O)[C@@]3(C)C(=O)[C@H](OC(C)=O)C(=C1C)C2(C)C)[C@@H](NCc1ccccc1)c1ccccc1 | 0.005 µg/mL (≈ 0.00454 µM) | 0.005 µg/mL (≈ 0.00454 µM) | 
13 | CC(=O)O[C@H]1C(=O)[C@@]2(C)[C@H]([C@H](OCc3ccccc3)[C@]3(O)C[C@H](OC(=O)[C@H](OC(=O)CCC(=O)Oc4c(C)c(C)c5c(c4C)OC(C)(C)CC5)[C@@H](NCc4ccccc4)c4ccccc4)C(C)=C1C3(C)C)[C@]1(OC(C)=O)CO[C@@H]1C[C@@H]2O | 0.94 µg/mL (≈ 0.833 µM) | 0.2 µg/mL (≈ 0.177 µM) | 
14 | CC(=O)O[C@H]1C(=O)[C@]2(C)[C@@H](OC(=O)CN(C)C)C[C@H]3OC[C@@]3(OC(C)=O)[C@H]2[C@H](OCc2ccccc2)[C@]2(O)C[C@H](OC(=O)[C@H](OC(=O)/C=C(C)/C=C/C=C(C)/C=C/C3=C(C)CCCC3(C)C)[C@@H](NCc3ccccc3)c3ccccc3)C(C)=C1C2(C)C | 7.65 µg/mL (≈ 6.41 µM) | 4.47 µg/mL (≈ 3.75 µM) | 
15 | CC(=O)O[C@H]1C(=O)[C@]2(C)[C@@H](OC(=O)CN(C)C)C[C@H]3OC[C@@]3(OC(C)=O)[C@H]2[C@H](OCc2ccccc2)[C@]2(O)C[C@H](OC(=O)[C@H](OC(=O)CCC(=O)Oc3ccc4c(=O)c(O)c(-c5ccccc5)oc4c3)[C@@H](NCc3ccccc3)c3ccccc3)C(C)=C1C2(C)C | 0.09 µg/mL (≈ 0.0722 µM) | 0.11 µg/mL (≈ 0.0882 µM) | 
16 | CC(=O)O[C@H]1C(=O)[C@@]2(C)[C@H]([C@H](OCc3ccccc3)[C@]3(O)C[C@H](OC(=O)[C@H](OC(=O)/C=C(C)/C=C/C=C(C)/C=C/C4=C(C)CCCC4(C)C)[C@@H](NCc4ccccc4)c4ccccc4)C(C)=C1C3(C)C)[C@]1(OC(C)=O)CO[C@@H]1C[C@@H]2O | 0.2 µg/mL (≈ 0.18 µM) | 0.49 µg/mL (≈ 0.442 µM) | 
17 | CC(=O)O[C@H]1C(=O)[C@]2(C)[C@@H](OC(=O)CN(C)C)C[C@H]3OC[C@@]3(OC(C)=O)[C@H]2[C@H](OCc2ccccc2)[C@]2(O)C[C@H](OC(=O)[C@H](OC(=O)CCC(=O)Oc3c(C)c(C)c4c(c3C)OC(C)(CCC[C@@H](C)CCC[C@@H](C)CCCC(C)C)CC4)[C@@H](NCc3ccccc3)c3ccccc3)C(C)=C1C2(C)C (some centres not stated) [listing 2 of 2 here] |  |  | EC50 (A-431): 0.2 µg/mL (≈ 0.14 µM)
18 | CC(=O)O[C@H]1C(=O)[C@@]2(C)[C@H]([C@H](OCc3ccccc3)[C@]3(O)C[C@H](OC(=O)[C@H](OC(=O)CCC(=O)Oc4cc(O)c5c(=O)cc(-c6ccccc6)oc5c4)[C@@H](NCc4ccccc4)c4ccccc4)C(C)=C1C3(C)C)[C@]1(OC(C)=O)CO[C@@H]1C[C@@H]2O | 0.47 µg/mL (≈ 0.404 µM) | 0.2 µg/mL (≈ 0.172 µM) | 
